# Assay results taken from patent US10745382B2 (BRISTOL-MYERS SQUIBB COMPANY, priority 2015, dated 2020).
# Target: T1, PD-1/PD-L1 (Homo sapiens, UniProt Q9NZQ7)
# T1 construct: made in house; host or cells: HEK293T
# Test: PD-1/PD-L1 Homogenous Time-Resolved Fluorescence (HTRF) binding assay
# Details: PD-L1-His 10 nM, PD-1-Ig 20 nM; numeric IC50; read-out: Range or IC50
# In short: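 Binding measured in dPBS with 0.1% BSA and 0.05% Tween-20, detected by HTRF with europium cryptate anti-Ig (1 nM final) and APC anti-His (20 nM final) added over the binding reaction. Counter-assays used human PD-1-Ig/PD-L2-His (20 and 5 nM) and CD80-His/PD-L1-Ig (100 and 10 nM).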
# T1 sequence (Q9NZQ7 with tags, fused parts or gaps): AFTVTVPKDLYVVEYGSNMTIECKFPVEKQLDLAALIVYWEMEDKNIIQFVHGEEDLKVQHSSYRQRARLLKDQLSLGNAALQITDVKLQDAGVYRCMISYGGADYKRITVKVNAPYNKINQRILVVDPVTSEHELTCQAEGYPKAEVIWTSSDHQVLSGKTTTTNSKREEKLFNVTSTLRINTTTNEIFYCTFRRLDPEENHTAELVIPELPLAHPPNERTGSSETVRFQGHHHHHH
row,Compound,IC50
1,"CCN(CCCOc1cccc(-c2cccc(COc3cc(OCc4cncc(C#N)c4)c(CN(CC)C[C@H](O)CO)cc3Cl)c2C)c1Cl)C[C@H](O)CO [Example 2075, 5-((4-chloro-5-((2′-chloro-3′-(3-(((S)-2,3-dihydroxypropyl)(ethyl)amino)propoxy)-2-methyl-[1,1′-biphenyl]-3-yl)methoxy)-2-((((S)-2,3-dihydroxypropyl)(ethyl)amino)methyl)phenoxy)methyl)nicotinonitrile]",5 nM

# Same assay, conditions: PD-L1-His 10 nM, PD-1-Ig 20 nM; value given as range class; read-out: Range or IC50
row,Compound,IC50
1,"Cc1c(COc2cc(OCc3cncc(C#N)c3)c(CN(C)[C@@](C)(CO)C(=O)O)cc2Cl)cccc1-c1cccc(OCCCN2CC[C@@H](O)C2)c1C [Example 4108, (S)-2-((5-chloro-2-((5-cyanopyridin-3-yl)methoxy)-4-((3′-(3-((R)-3-hydroxypyrrolidin-1-yl)propoxy)-2,2′-dimethyl-[1,1′-biphenyl]-3-yl)methoxy)benzyl)(methyl)amino)-3-hydroxy-2-methylpropanoic Acid]",0.21 to 10 nM
2,"Cc1c(COc2cc(OCc3cncc(C(N)=O)c3)c(CN[C@](C)(CO)C(=O)O)cc2Cl)cccc1-c1cccc(OCCCN2CCC(O)(C(=O)O)C2)c1C (stereo partly drawn) [Example 1057, 1-(3-((3′-((5-((5-carbamoylpyridin-3-yl)methoxy)-4-((((R)-2-carboxy-1-hydroxypropan-2-yl)amino)methyl)-2-chlorophenoxy)methyl)-2,2′-dimethyl-[1,1′-biphenyl]-3-yl)oxy)propyl)-3-hydroxypyrrolidine-3-carboxylic Acid]",0.21 to 10 nM
3,"Cc1c(COc2cc(OCc3cncc(C#N)c3)c(CN3CCCC[C@H]3C(=O)O)cc2Cl)cccc1-c1cccc(OCCCN[C@@H](CO)C(C)C)c1C [Example 2237, (2S)-1-(5-chloro-2-((5-cyanopyridin-3-yl)methoxy)-4-((3′-(3-((R)-1-hydroxy-3-methylbutan-2-ylamino)propoxy)-2,2′-dimethylbiphenyl-3-yl)methoxy)benzyl)piperidine-2-carboxylic Acid]",0.21 to 10 nM
4,"Cc1c(COc2cc(OCc3cncc(C#N)c3)c(CN3CC[C@H](O)C3)cc2Cl)cccc1-c1ccc2c(c1)OC(CCN1CC[C@H](O)C1)CO2 (mixture of isomers) [Example 1501, 5-((4-chloro-5-((3-(3-(2-((S)-3-hydroxypyrrolidin-1-yl)ethyl)-2,3-dihydrobenzo[b][1,4]dioxin-6-yl)-2-methylbenzyl)oxy)-2-(((S)-3-hydroxypyrrolidin-1-yl)methyl)phenoxy)methyl)nicotinonitrile]",0.21 to 10 nM
5,"Cc1c(COc2cc(OCc3cncc(C#N)c3)c(CN3CCCC[C@H]3C(=O)O)cc2Cl)cccc1-c1cccc(OCCCN2CCC(CO)(C(=O)O)C2)c1C (single isomer, unassigned) [Example 1066]",0.21 to 10 nM
6,"Cc1c(COc2cc(OCc3cncc(C#N)c3)c(CN3CCCC[C@H]3C(=O)O)cc2Cl)cccc1-c1cccc(OCCCN2CCOC(C(F)(F)F)C2)c1C (stereo partly drawn) [Example 3058, (2S)-1-(5-chloro-2-((5-cyanopyridin-3-yl)methoxy)-4-((2,2′-dimethyl-3′-(3-(2-(trifluoromethyl)morpholino)propoxy)-[1,1′-biphenyl]-3-yl)methoxy)benzyl)piperidine-2-carboxylic Acid]",0.21 to 10 nM
7,"Cc1c(COc2cc(OCc3cncc(C#N)c3)c(CN3CCCC[C@H]3C(=O)O)cc2Cl)cccc1-c1cccc(OCCCN2CCN(CC(=O)NC(C)C)CC2)c1C [Example 2217, (2S)-1-(5-chloro-2-((5-cyanopyridin-3-yl)methoxy)-4-((3′-(3-(4-(2-(isopropylamino)-2-oxoethyl)piperazin-1-yl)propoxy)-2,2′-dimethylbiphenyl-3-yl)methoxy)benzyl)piperidine-2-carboxylic Acid]",0.21 to 10 nM
8,"CCOC(=O)C1(O)CCN(CCCOc2cccc(-c3cccc(COc4cc(OCc5cncc(C#N)c5)c(CN5CCCC[C@H]5C(=O)O)cc4Cl)c3C)c2Cl)CC1 [Example 1100, (S)-1-(5-chloro-4-((2′-chloro-3′-(3-(4-(ethoxycarbonyl)-4-hydroxypiperidin-1-yl)propoxy)-2-methyl-[1,1′-biphenyl]-3-yl)methoxy)-2-((5-cyanopyridin-3-yl)methoxy)benzyl)piperidine-2-carboxylic Acid]",0.21 to 10 nM
9,"Cc1c(COc2cc(OCc3cncc(C#N)c3)c(CNCCC(=O)O)cc2Cl)cccc1-c1cccc(OCCCN2CC[C@@H](O)C2)c1C [Example 4149, (R)-3-((5-chloro-2-((5-cyanopyridin-3-yl)methoxy)-4-((3′-(3-(3-hydroxypyrrolidin-1-yl)propoxy)-2,2′-dimethyl-[1,1′-biphenyl]-3-yl)methoxy)benzyl)amino)propanoic Acid]",0.21 to 10 nM
10,"Cc1c(COc2cc(OCc3cc(F)cc(F)c3)c(CO)cc2Cl)cccc1-c1cccc(OCCCN2CC[C@@H](O)C2)c1C [Example 4522, (R)-1-(3-((3′-((2-chloro-5-((3,5-difluorobenzyl)oxy)-4-(hydroxymethyl)phenoxy)methyl)-2,2′-dimethyl-[1,1′-biphenyl]-3-yl)oxy)propyl)pyrrolidin-3-ol]",10 to 100 nM
11,"Cc1c(COc2cc(OCc3cncc(C#N)c3)c(CN[C@@](C)(CO)C(=O)O)cc2Cl)cccc1-c1cccc(OCCCN2CC[C@@H](O)C2)c1 [Example 1017, (S)-2-((5-chloro-2-((5-cyanopyridin-3-yl)methoxy)-4-((3′-(3-((R)-3-hydroxypyrrolidin-1-yl)propoxy)-2-methyl-[1,1′-biphenyl]-3-yl)methoxy)benzyl)amino)-3-hydroxy-2-methylpropanoic Acid]",0.21 to 10 nM
12,"Cc1c(COc2cc(OCc3cncc(C(N)=O)c3)c(CN[C@](C)(CO)C(=O)O)cc2Cl)cccc1-c1cccc(OCCCN2CCC(CO)(C(=O)O)CC2)c1C [Example 1113, (R)-1-(3-((3′-((5-((5-carbamoylpyridin-3-yl)methoxy)-4-(((2-carboxy-1-hydroxypropan-2-yl)amino)methyl)-2-chlorophenoxy)methyl)-2,2′-dimethyl-[1,1′-biphenyl]-3-yl)oxy)propyl)-4-(hydroxymethyl)piperidine-4-carboxylic Acid]",0.21 to 10 nM
13,"Cc1c(COc2cc(OCc3cncc(C#N)c3)c(CN(CCO)CCO)cc2Cl)cccc1-c1cccc(CN(C)CCN2CCS(=O)(=O)CC2)c1C [Example 4084, 5-((2-((bis(2-hydroxyethyl)amino)methyl)-4-chloro-5-((3′-(((2-(1,1-dioxidothiomorpholino)ethyl)(methyl)amino)methyl)-2,2′-dimethyl-[1,1′-biphenyl]-3-yl)methoxy)phenoxy)methyl)nicotinonitrile]",10 to 100 nM
14,"Cc1c(COc2cc(OCc3cncc(C#N)c3)c(CNC(CO)(CO)CO)c(C)c2Cl)cccc1-c1cccc(OCCCN2CC[C@@H](O)C2)c1C [Example 4104, (R)-5-((4-chloro-2-(((1,3-dihydroxy-2-(hydroxymethyl)propan-2-yl)amino)methyl)-5-((3′-(3-(3-hydroxypyrrolidin-1-yl)propoxy)-2,2′-dimethyl-[1,1′-biphenyl]-3-yl)methoxy)-3-methylphenoxy)methyl)nicotinonitrile]",0.21 to 10 nM
15,"Cc1c(OCCCN2CC[C@@H](O)C2)cccc1-c1cccc(COc2cc(OCC(N)=O)c(CNC(CO)CO)cc2Cl)c1Cl [Example 2316, (R)-2-(4-chloro-5-((2-chloro-3′-(3-(3-hydroxypyrrolidin-1-yl)propoxy)-2′-methyl-[1,1′-biphenyl]-3-yl)methoxy)-2-(((1,3-dihydroxypropan-2-yl)amino)methyl)phenoxy)acetamide]",0.21 to 10 nM
16,"COc1c(COc2cc(OCc3cncc(C#N)c3)c(CN[C@](C)(CO)C(=O)O)cc2Cl)cccc1-c1cccc(OCCCN2CC[C@@H](O)C2)c1C [Example 3025, (R)-2-((5-chloro-2-((5-cyanopyridin-3-yl)methoxy)-4-((3′-(3-((R)-3-hydroxypyrrolidin-1-yl)propoxy)-2-methoxy-2′-methyl-[1,1′-biphenyl]-3-yl)methoxy)benzyl)amino)-3-hydroxy-2-methylpropanoic Acid]",0.21 to 10 nM
17,"Cc1c(COc2cc(OCc3cncc(C#N)c3)c(CNC(C)(CO)CO)cc2Cl)cccc1-c1cccc(OCCCN2CC[C@@H](O)C2)c1C [Example 2324, (R)-5-((4-chloro-2-(((1,3-dihydroxy-2-methylpropan-2-yl)amino)methyl)-5-((3′-(3-(3-hydroxypyrrolidin-1-yl)propoxy)-2,2′-dimethyl-[1,1′-biphenyl]-3-yl)methoxy)phenoxy)methyl)nicotinonitrile]",0.21 to 10 nM
18,"Cc1c(COc2cc(OCc3cncc(C#N)c3)c(CN(C)C(C)(CO)CO)cc2Cl)cccc1-c1cccc(OCCCN2CC[C@@H](O)C2)c1Cl [Example 2076, (R)-5-((4-chloro-5-((2′-chloro-3′-(3-(3-hydroxypyrrolidin-1-yl)propoxy)-2-methyl-[1,1′-biphenyl]-3-yl)methoxy)-2-(((1,3-dihydroxy-2-methylpropan-2-yl)(methyl)amino)methyl)phenoxy)methyl)nicotinonitrile]",0.21 to 10 nM
19,"Cc1c(COc2cc(OCc3cncc(C#N)c3)c(CN3CCCC[C@H]3C(=O)O)cc2Cl)cccc1-c1cccc(OCCCN2C[C@H](O)C[C@H]2C(N)=O)c1Cl [Example 1085, (S)-1-(4-((3′-(3-((2S,4R)-2-carbamoyl-4-hydroxypyrrolidin-1-yl)propoxy)-2′-chloro-2-methyl-[1,1′-biphenyl]-3-yl)methoxy)-5-chloro-2-((5-cyanopyridin-3-yl)methoxy)benzyl)piperidine-2-carboxylic Acid]",0.21 to 10 nM
20,"Cc1c(COc2cc(OCc3cncc(C#N)c3)c(CN[C@](C)(CO)C(=O)O)cc2Cl)cccc1-c1cccc(OCCCN2CCC(O)(c3ccccc3)C2)c1C (stereo partly drawn) [Example 3038, (2R)-2-((5-chloro-2-((5-cyanopyridin-3-yl)methoxy)-4-((3′-(3-(3-hydroxy-3-phenylpyrrolidin-1-yl)propoxy)-2,2′-dimethyl-[1,1′-biphenyl]-3-yl)methoxy)benzyl)amino)-3-hydroxy-2-methylpropanoic Acid]",0.21 to 10 nM
